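Assay format: 96-well plates, 48-hour exposure. GI50 is the concentration that inhibits growth by half. The concentration for full growth arrest is given as TGI.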
What was measured:
Test in all cases: DTP human tumour cell line panel, 48 h
U251 CNS = system: U251 CNS
HCT-15 colon = system: HCT-15 colon
DU-145 prostate = system: DU-145 prostate
SN12C renal = system: SN12C renal
PC-3 prostate = system: PC-3 prostate
MALME-3M melanoma = system: MALME-3M melanoma
NCI-H226 lung = system: NCI-H226 lung
CCRF-CEM leukemia = system: CCRF-CEM leukemia
COLO 205 colon = system: COLO 205 colon
KM12 colon = system: KM12 colon

| SMILES | GI50 (U251 CNS) | TGI (U251 CNS) | GI50 (HCT-15 colon) | TGI (HCT-15 colon) | GI50 (DU-145 prostate) | TGI (DU-145 prostate) | GI50 (SN12C renal) | TGI (SN12C renal) | GI50 (PC-3 prostate) | TGI (PC-3 prostate) | GI50 (MALME-3M melanoma) | TGI (MALME-3M melanoma) | GI50 (NCI-H226 lung) | TGI (NCI-H226 lung) | GI50 (CCRF-CEM leukemia) | TGI (CCRF-CEM leukemia) | GI50 (COLO 205 colon) | TGI (COLO 205 colon) | GI50 (KM12 colon) | TGI (KM12 colon) |
| --- | --- | --- | --- | --- | --- | --- | --- | --- | --- | --- | --- | --- | --- | --- | --- | --- | --- | --- | --- | --- |
| N=c1ccc2nc3ccc(N)cc3sc-2c1 | 3.45 µM | 10.5 µM | 5.4 µM | > 100 µM | 16.8 µM | 40.8 µM | 3.19 µM | 11 µM | 2.56 µM | 15.6 µM | 6.22 µM | 32.5 µM | 12.4 µM | 28.2 µM | 3.55 µM | 35.3 µM | 2.25 µM | 12.5 µM | 4.24 µM | > 100 µM |
| Cc1ccc(S(=O)(=O)c2nc(-c3ccccc3)oc2S(C)(=O)=O)cc1 | 5.88 µM | 18.3 µM | 1.7 µM | 3.31 µM | 1.71 µM | 3.15 µM | 1.92 µM | 3.95 µM | 10.4 µM | 23.1 µM | 1.9 µM | 3.68 µM | 3.31 µM | 15 µM | 2.83 µM | 8.16 µM | 1.7 µM | 3.21 µM | 13 µM | 27.2 µM |
| C=C1C(=O)O[C@H]2[C@H]1CC/C(COC(=O)N[C@H]1C[C@H](O[C@H]3C[C@](O)(C(=O)CO)Cc4c(O)c5c(c(O)c43)C(=O)c3c(OC)cccc3C5=O)O[C@@H](C)[C@H]1O)=C\CC[C@@]1(C)O[C@@H]21 | 4.87 µM | 11.2 µM | > 50 µM | > 50 µM | 12.1 µM | > 50 µM | 5.07 µM | 14.4 µM | 7.8 µM | 30.8 µM | 0.879 µM | 1.9 µM | 5.33 µM | 12.6 µM | 0.672 µM | 2.28 µM | 1.75 µM | 6.98 µM | 13.2 µM | 40.7 µM |
| CC(/C=C/C(O)=C1/C(=O)CNC1=O)=C\[C@@H](C)[C@H]1O[C@@]2(C)O[C@H](C(=O)[C@@H]3O[C@@]32C)[C@@H]1C | – | 54.9 µM | – | 49.6 µM | – | 40.1 µM | – | 47.3 µM | – | 31.8 µM | – | 38 µM | – | 54.4 µM | – | > 100 µM | – | 43.6 µM | – | 36.4 µM |
| CCCc1nc(Cl)nc(Cl)c1Cl | – | 2.05 µM | – | 3.15 µM | – | 9.93 µM | – | 2.13 µM | – | 1.6 µM | – | 2.46 µM | – | 8.97 µM | – | 0.0731 µM | – | – | – | 2.77 µM |
| CC(NC(=O)Cc1ccc(C(F)(F)P(=O)(OCc2ccc([N+](=O)[O-])o2)N(C)CCCCCl)cc1)c1ccc(OCC2CCCCC2)c(C(N)=O)c1 (centres undefined) | 3.33 µM | 10.9 µM | 4.85 µM | 16.1 µM | 6.2 µM | 16.7 µM | 5.35 µM | 10.9 µM | 6.91 µM | > 34.8 µM | 4.62 µM | 16.3 µM | 5.52 µM | 15.1 µM | – | – | 3.94 µM | 11.2 µM | 3.32 µM | 10.2 µM |
| C/C(=C(/c1ccccc1)c1ccc(OCC(O)CNCCN2CCOCC2)cc1)c1ccccc1 (centres undefined) | 2.03 µM | 4.52 µM | 2.19 µM | 5.4 µM | 4.37 µM | 15.7 µM | 5.08 µM | 18.5 µM | 2.78 µM | 10.2 µM | 1.62 µM | 3.04 µM | 12.1 µM | 29.3 µM | 3.48 µM | 11.3 µM | 1.95 µM | 4.17 µM | 2.73 µM | 8.33 µM |
| O=C(c1ccc2ccccc2c1)c1nc2cc(F)ccc2[n+]([O-])c1C(F)(F)F | 18.1 µM | 33.9 µM | 13 µM | 27.8 µM | 20.9 µM | 45.8 µM | 26.6 µM | 71.4 µM | 20.1 µM | 53.4 µM | 17.3 µM | 32.9 µM | 22.2 µM | 46.5 µM | 22.5 µM | 66.3 µM | 15.9 µM | 38.1 µM | 19 µM | 39.4 µM |
| Cn1c(=O)n(C)c2cc(CNCCNc3ccnc4cc(Cl)ccc34)ccc21 | 22.1 µM | 72.1 µM | 31 µM | > 100 µM | 38.5 µM | > 100 µM | 45.7 µM | > 100 µM | 34.6 µM | > 100 µM | 16.6 µM | 32.9 µM | 72 µM | > 100 µM | 30.7 µM | > 100 µM | 17.2 µM | 35.8 µM | 37.3 µM | > 100 µM |
| COc1cc([C@@H]2c3cc4c(cc3[C@H](OC(C)=O)[C@H]3COC(=O)[C@@H]23)OCO4)cc(OC)c1OC | 0.377 µM | > 100 µM | 0.371 µM | > 100 µM | 0.245 µM | 0.649 µM | 0.759 µM | > 100 µM | 0.318 µM | > 100 µM | – | > 100 µM | 3.82 µM | – | 0.338 µM | > 100 µM | 0.272 µM | 0.678 µM | 0.298 µM | – |
| COc1cc(F)ccc1-c1cc(Nc2cc(CS(C)(=N)=O)ccn2)ncc1F (centres undefined) | 0.0683 µM | > 100 µM | 0.0491 µM | > 100 µM | 0.0773 µM | > 100 µM | 0.0583 µM | > 100 µM | 0.0451 µM | > 47.2 µM | 0.2 µM | – | 0.0375 µM | > 100 µM | 0.0344 µM | > 100 µM | 0.0333 µM | 0.17 µM | 0.0479 µM | 15.6 µM |
| CC(=O)c1cccc(NC(=O)C(=O)c2c(O)c3ccccc3oc2=O)c1 | – | > 100 µM | – | > 100 µM | – | – | – | > 100 µM | – | > 100 µM | – | > 100 µM | – | > 100 µM | – | > 100 µM | – | – | – | > 100 µM |
| CCN1[C@@H](C(=O)NC23CCC(C(=O)O)(CC2)CC3)[C@H](c2cccc(Cl)c2F)[C@]2(C(=O)Nc3cc(Cl)ccc32)C12CCCCC2 | 3.29 µM | 15.5 µM | 2.57 µM | 12.5 µM | 5.47 µM | 18.5 µM | 3.67 µM | 19.4 µM | 2.42 µM | 9.21 µM | 0.0655 µM | 1.18 µM | – | – | 2.98 µM | 13.2 µM | 3.02 µM | 10.6 µM | 3.34 µM | 12.7 µM |

— PubChem BioAssay (NCI)
